Test results published in PubChem BioAssay AID2060889 (Molecular Pharmacology Branch, DTP, NCI, 2025).
“And” between values parts separate entries of the source, which are not always exact repeats. Equal values may be shown once. Each block holds one molecule with its values, some of them ahead of it.

Test system: LG0567-F671-PDC complex spheroids viability
Assay: Anticancer human tumor LG0567-F671-PDC patient-derived lung adenocarcinoma cell line growth inhibition [RAS]
Details: for viability, T/C: stronger effect = lower value
Procedure, shortened: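 Agents were tested in combination matrices in half-log decrements from a top concentration at or near clinical Cmax (10 microM if undetermined). Targets were multi-cell spheroids of tumour lines plus HUVEC and MSC stromal cells.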

[1] = curve of first compound, second compound 0.000949 µM
[2] = curve of first compound, second compound 0.003 µM
[3] = curve of first compound, second compound 0.00949 µM
[4] = curve of first compound, second compound 0.03 µM
[5] = curve of first compound, second compound 0.0949 µM
[6] = curve of first compound, second compound 0.3 µM
[7] = second compound 0.000949 µM, first compound 0.0316 µM
[8] = second compound 0.000949 µM, first compound 0.1 µM
[9] = second compound 0.000949 µM, first compound 0.316 µM
[10] = second compound 0.000949 µM, first compound 1 µM
[11] = second compound 0.000949 µM, first compound 3.16 µM
[12] = second compound 0.000949 µM, first compound 10 µM
[13] = second compound 0.003 µM, first compound 0.0316 µM
[14] = second compound 0.003 µM, first compound 0.1 µM
[15] = second compound 0.003 µM, first compound 0.316 µM
[16] = second compound 0.003 µM, first compound 1 µM
[17] = second compound 0.003 µM, first compound 3.16 µM
[18] = second compound 0.003 µM, first compound 10 µM
[19] = second compound 0.00949 µM, first compound 0.0316 µM
[20] = second compound 0.00949 µM, first compound 0.1 µM
[21] = second compound 0.00949 µM, first compound 0.316 µM
[22] = second compound 0.00949 µM, first compound 1 µM
[23] = second compound 0.00949 µM, first compound 3.16 µM
[24] = second compound 0.00949 µM, first compound 10 µM
[25] = second compound 0.03 µM, first compound 0.0316 µM
[26] = second compound 0.03 µM, first compound 0.1 µM
[27] = second compound 0.03 µM, first compound 0.316 µM
[28] = second compound 0.03 µM, first compound 1 µM
[29] = second compound 0.03 µM, first compound 3.16 µM
[30] = second compound 0.03 µM, first compound 10 µM
[31] = second compound 0.0949 µM, first compound 0.0316 µM
[32] = second compound 0.0949 µM, first compound 0.1 µM
[33] = second compound 0.0949 µM, first compound 0.316 µM
[34] = second compound 0.0949 µM, first compound 1 µM
[35] = second compound 0.0949 µM, first compound 3.16 µM
[36] = second compound 0.0949 µM, first compound 10 µM
[37] = second compound 0.3 µM, first compound 0.0316 µM
[38] = second compound 0.3 µM, first compound 0.1 µM
[39] = second compound 0.3 µM, first compound 0.316 µM
[40] = second compound 0.3 µM, first compound 1 µM
[41] = second compound 0.3 µM, first compound 3.16 µM
[42] = second compound 0.3 µM, first compound 10 µM
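Also: spheroids exposed to compound for seven days before readout.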
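For IC50 in this document: luminescence signal used as a proxy for viable cells.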

IC50 [1]: < 31.6 nM
IC50 [2]: < 31.6 nM
IC50 [3]: < 31.6 nM
IC50 [4]: < 31.6 nM
IC50 [5]: < 31.6 nM
IC50 [6]: < 31.6 nM
SMILES: Cc1nc(N2CCC3(CC2)COC(C)C3N)c(CO)nc1Sc1ccnc(N)c1Cl (stereo unspecified) + CCn1c(-c2cccnc2C(C)OC)c2c3cc(ccc31)N1CCOC(CC(NC(=O)C(C(C)C)N(C)C(=O)C3(F)CCN(C(=O)C#CC(C)(C)N(C)C)CC3)C(=O)N3CCCC(N3)C(=O)OCC(C)(C)C2)C1
viability, T/C [7]: 10.8%
viability, T/C [8]: 7.91%
viability, T/C [9]: 6.47%
viability, T/C [10]: 4.21%
viability, T/C [11]: 2.97%
viability, T/C [12]: 3.86%
viability, T/C [13]: 12%
viability, T/C [14]: 8.89%
viability, T/C [15]: 6.21%
viability, T/C [16]: 4.14%
viability, T/C [17]: 3.41%
viability, T/C [18]: 2.94%
viability, T/C [19]: 10.7%
viability, T/C [20]: 8.42%
viability, T/C [21]: 5.46%
viability, T/C [22]: 3.45%
viability, T/C [23]: 2.86%
viability, T/C [24]: 3.85%
viability, T/C [25]: 10.3%
viability, T/C [26]: 6.81%
viability, T/C [27]: 6.16%
viability, T/C [28]: 3.36%
viability, T/C [29]: 2.76%
viability, T/C [30]: 2.27%
viability, T/C [31]: 6.53%
viability, T/C [32]: 6.31%
viability, T/C [33]: 5%
viability, T/C [34]: 3.1%
viability, T/C [35]: 2.61%
viability, T/C [36]: 3.31%
viability, T/C [37]: 6.4%
viability, T/C [38]: 4.69%
viability, T/C [39]: 3.02%
viability, T/C [40]: 3.78%
viability, T/C [41]: 2.19%
viability, T/C [42]: 3.11%

IC50 (curve of compound): > 10000 nM
SMILES: C[C@@H](NC(=O)c1ncnc(N)c1Cl)c1ncc(C(=O)Nc2cc(C(F)(F)F)c(Cl)cn2)s1
viability, T/C (compound 0.0316 µM): 115% [middle of 4 runs]
viability, T/C (compound 0.1 µM): 120% (2×) and 125% (2×)
viability, T/C (compound 0.316 µM): 129% and 122% (2×) and 128%
viability, T/C (compound 1 µM): 121% [middle of 4 runs]
viability, T/C (compound 3.16 µM): 102% [middle of 4 runs]
viability, T/C (compound 10 µM): 79% [middle of 4 runs]

IC50 [1]: < 31.6 nM
IC50 [2]: < 31.6 nM
IC50 [3]: < 31.6 nM
IC50 [4]: < 31.6 nM
IC50 [5]: < 31.6 nM
IC50 [6]: < 31.6 nM
SMILES: CCC(CC)c1cc(NC2CCC(N)C2)n2nccc2n1 (stereo unspecified) + CCn1c(-c2cc(N3CCN(C)CC3)cnc2C(C)OC)c2c3cc(ccc31)-c1csc(n1)CC(NC(=O)C1CC1C)C(=O)N1CCCC(N1)C(=O)OCC(C)(C)C2
viability, T/C [7]: 23.1%
viability, T/C [8]: 23.2%
viability, T/C [9]: 25.9%
viability, T/C [10]: 22.7%
viability, T/C [11]: 0.34%
viability, T/C [12]: 0.1%
viability, T/C [13]: 10.8%
viability, T/C [14]: 9.27%
viability, T/C [15]: 10.1%
viability, T/C [16]: 9.94%
viability, T/C [17]: 0.21%
viability, T/C [18]: 0.08%
viability, T/C [19]: 6.93%
viability, T/C [20]: 7.19%
viability, T/C [21]: 6.29%
viability, T/C [22]: 4.74%
viability, T/C [23]: 0.26%
viability, T/C [24]: 0.09%
viability, T/C [25]: 4.43%
viability, T/C [26]: 3.65%
viability, T/C [27]: 3.4%
viability, T/C [28]: 2.31%
viability, T/C [29]: 0.18%
viability, T/C [30]: 0.09%
viability, T/C [31]: 2.75%
viability, T/C [32]: 2.83%
viability, T/C [33]: 2.71%
viability, T/C [34]: 1.9%
viability, T/C [35]: 0.21%
viability, T/C [36]: 0.11%
viability, T/C [37]: 2.39%
viability, T/C [38]: 2.56%
viability, T/C [39]: 2.39%
viability, T/C [40]: 1.46%
viability, T/C [41]: 0.22%
viability, T/C [42]: 0.15%
